According to US20230018989A1, “INHIBITING THE RNA […] METTL3 OR ITS INTERACTION WITH EIF3H TO […] ONCOGENE TRANSLATION AND TUMORIGENESIS” (Children's Medical Center Corporation, priority 2019, published 2023):

Legend:
A549 cells [1] = test: MTS cell proliferation assay upon JQ1 treatment; format: cell-based, human; details: 500 nM JQ1; METTL3 depleted A549 cells compared with control A549 cells
Procedure: FIGS. 7A-7N. METTL3 promotes translation of a large subset of mRNAs. (FIGS. 7A-7E) Global profiling of METTL3 target genes in HeLa. Cytoplasmic extracts from control or METTL3 depleted cells were subjected to sucrose gradient centrifugation. Total RNA, RNA from sub-polysome fractions and RNA from polysome fractions were analyzed by RNA-seq. (FIG. 7A) Peak analysis of polysome profiling. (FIG. 7B) Scatter plot of RNA-Seq data in METTL3 knockdown (shMETTL3) and control (shGFP) HeLa cells. Average read number from two individual METTL3 knockdown is plotted on the y-axis. (FIG. 7C) Scatter plot of RNA-Seq data in shMETTL3 and shGFP HeLa cells. Average read number from two shMETTL3 samples were calculated by the ratio of polysome fraction to the read number in the sub-polysome fraction and plotted on the y-axis. […] (FIG. 7N) Quantification of apoptotic cells, numbers represent ratio between death cells in JQ1 and DMSO treatments. […]
Cell proliferation and apoptosis assays were performed as described previously^8. […] Absorbances at 490 nm were measured using CellTiter 96 AQueous One Solution Cell Proliferation Assay kit (Promega) on day 2, day 4, and day 6 to measure the cellular proliferation. The numbers of apoptotic cells were quantified by flow cytometric assays using Annexin V-FITC Apoptosis Detection Kit (BioVision) five days after 500 nM of JQ1 treatment and cell seeding.

A549 cells [2] = test: Annexin V/PI apoptosis assay (FACS) upon JQ1 treatment; format: cell-based, human; details: 500 nM JQ1, five days; METTL3 depleted A549 cells compared with control A549 cells
Procedure: FIGS. 7A-7N. METTL3 promotes translation of a large subset of mRNAs. (FIGS. 7A-7E) Global profiling of METTL3 target genes in HeLa. Cytoplasmic extracts from control or METTL3 depleted cells were subjected to sucrose gradient centrifugation. Total RNA, RNA from sub-polysome fractions and RNA from polysome fractions were analyzed by RNA-seq. (FIG. 7A) Peak analysis of polysome profiling. (FIG. 7B) Scatter plot of RNA-Seq data in METTL3 knockdown (shMETTL3) and control (shGFP) HeLa cells. Average read number from two individual METTL3 knockdown is plotted on the y-axis. (FIG. 7C) Scatter plot of RNA-Seq data in shMETTL3 and shGFP HeLa cells. Average read number from two shMETTL3 samples were calculated by the ratio of polysome fraction to the read number in the sub-polysome fraction and plotted on the y-axis. (FIG. 7D) Venn diagram showing the overlap of 2-fold less translated genes and METTL3 PAR-CLIP data. […] (FIG. 7N) Quantification of apoptotic cells, numbers represent ratio between death cells in JQ1 and DMSO treatments. […]
FIGS. 9A-9E. […] (FIG. 9B) Density plot reflects the distribution of changes in percent spliced In (APSI) values and according p-values for alternative splicing events detected by rMATs v3.2.5. […] (FIG. 9E) Annexin V/PI staining of METTL3 knockdown and control A549 cells upon JQ1 treatment that was analyzed by FACS. […]

[3] = target: eIF3h (endogenous, in cells) (human) (UniProt O15372); test: cell-based or functional assay
UniProt O15372, sequence (O15372 whole entry): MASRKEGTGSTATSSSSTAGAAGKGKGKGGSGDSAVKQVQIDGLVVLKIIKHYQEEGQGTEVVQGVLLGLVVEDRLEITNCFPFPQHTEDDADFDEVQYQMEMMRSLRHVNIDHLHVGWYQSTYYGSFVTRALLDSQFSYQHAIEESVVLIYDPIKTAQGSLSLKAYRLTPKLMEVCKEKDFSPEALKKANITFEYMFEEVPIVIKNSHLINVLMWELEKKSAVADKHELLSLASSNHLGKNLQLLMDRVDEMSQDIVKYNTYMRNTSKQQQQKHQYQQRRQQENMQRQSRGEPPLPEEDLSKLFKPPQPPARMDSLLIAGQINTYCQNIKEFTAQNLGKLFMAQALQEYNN

Row | translation efficiency of reporter mRNA (tethering assay, FLuc-MS2bs, with control siRNA or eIF3h knockdown) [3] [fold] | Molecule | cellular proliferation (OD490), JQ1 versus DMSO (A549 cells [1]) | number of apoptotic cells, JQ1 versus DMSO (A549 cells [2])
1 | – | Cc1sc2c(c1C)C(c1ccc(Cl)cc1)=N[C@@H](CC(=O)OC(C)(C)C)c1nnc(C)n1-2 [JQ1] | stronger proliferation defect | increased the number of apoptotic cells
2 | 2 | FLAG-MS2-METTL3 (from UniProt Q86U44 1-580) | – | –
